What was measured:
Saccharomyces cerevesiae = test: Perfume glycoside decomposition ability test of bread yeast; assay type: cell-based; details: glycoside 0.5% by weight in 15% sucrose solution, yeast 7% by weight, 4° C.
Protocol: Saccharomyces cerevesiae which had been cultured at 30° C. for 1 hour was added, at a concentration of 7% by weight, to a 15% by weight sucrose aqueous solution each containing the glycosides prepared in Synthesis Examples 2, 4 or 5 in an amount of 0.5% by weight. This was cultured at 4° C. while shaked. After 15 minutes and 4 hours culture, the culture liquid was sampled and centrifuged to precipitate the yeast. The supernatant was then extracted with the same volume of diethyl ether as that of the supernatant. The structure of the aroma components was identified on a GC-MS. The amount of the component released was determined on a GC with a detector of FID.

[1] = system: Coryneform bacteria (Corynebacterium); test: Glycoside decomposition ability test of Coryneform bacteria; assay type: cell-based; details: for Detected component and its amount: 2-phenylethyl alcohol: 32° C., glycoside 0.5% by weight in SCD liquid medium, GC-FID
Protocol: Each of the glycosides synthesized in Synthesis Examples 1 to 3 was added to a soybean casein digest liquid medium (SCD liquid medium) at an amount of 0.5% by weight based on the medium. To the liquid medium was inoculated 2% of bacterial liquid of Coryneform bacteria which had been precultured in an SCD liquid medium. This was cultured at 32° C. in a static state. The culture liquid was sampled after 2 days and 4 days culture and sterizing treatment was conducted on a conventional manner. After the sterizing treatment, aroma components were extracted with the same volume of diethyl ether as that of the culture liquid sampled. The structure of the components was identified on a GC-MS. The amount of the components released was determined on a GC with a detector of FID.

| SMILES | Amount of aroma components (Saccharomyces cerevesiae; after 15 minutes culture) [peak area × 10^5] | Amount of aroma components (Saccharomyces cerevesiae; after 4 hours culture) [peak area × 10^5] | Detected component and its amount: 2-phenylethyl alcohol ([1]; after 2 days culture) [peak area × 10^6] | Detected component and its amount: 2-phenylethyl alcohol ([1]; after 4 days culture) [peak area × 10^6] | Detected component and its amount: vanillin ([1]; after 2 days culture) [peak area × 10^6] | Detected component and its amount: vanillyl alcohol ([1]; after 2 days culture) [peak area × 10^6] | Detected component and its amount: vanillin ([1]; after 4 days culture) [peak area × 10^6] | Detected component and its amount: vanillyl alcohol ([1]; after 4 days culture) [peak area × 10^6] |
| --- | --- | --- | --- | --- | --- | --- | --- | --- |
| OC[C@H]1O[C@H](OCCc2ccccc2)[C@H](O)[C@@H](O)[C@@H]1O [2-phenylethylglucoside (α-form), 2-Phenylethyl Glucoside (α-form)] | 0.4 | 1.6 | 0.01 | 0.3 |  |  |  |  |
| OC[C@H]1O[C@@H](OCCc2ccccc2)[C@H](O)[C@@H](O)[C@@H]1O [2-phenylethylglucoside (β-form), 2-Phenylethyl Glucoside (βform)] |  |  | 1.1 | 8.0 |  |  |  |  |
| CC(C)=CCCC(C)CCO[C@@H]1O[C@H](CO)[C@@H](O)[C@H](O)[C@H]1O (stereo partly drawn) [citronellyl glucoside (β-form), Citronellyl Glucoside (β-form)] | 2.6 | 8.8 |  |  |  |  |  |  |
| C=CCc1ccc(O[C@@H]2O[C@H](CO)[C@@H](O)[C@H](O)[C@H]2O)c(OC)c1 [eugenyl glucoside (β-form), Eugenyl Glucoside (β-form)] | 0.5 | 1.3 |  |  |  |  |  |  |
| COc1cc(C=O)ccc1O[C@@H]1O[C@H](CO)[C@@H](O)[C@H](O)[C@H]1O [glucovanillin (β-form), Glucovanillin (β-form)] |  |  |  |  | 0.01 | 0 | 1.75 | 0.2 |

Source: patent US6576247B1, “Sustained-release aromatic and method of detecting micro-organism by using the same” (Kanebo Ltd. and T. Hasegawa Co. Ltd., priority 1994, dated 2003)
